Reference: US20230220105A1, “TUMOR ACTIVATED T CELL ENGAGERS AND METHODS OF USE THEREOF” (Janux Therapeutics, Inc., priority 2019, published 2023)

Assays:
MAGE-A3 TCR (TCR-1) [1] = assay: Kinetic binding of TCR to peptides (Octet BLI); details: Table 3; Ala mutants of Peptide-5 and controls
Method: BLI based kinetic binding of TCR to peptides was measured using a ForteBio Octet RED96 instrument. Biotinylated peptides were first directly captured on streptavidin biosensors. Sensors were quenched using excess biocytin and then baselined in buffer. A dilution series of TCR was made and associated onto the peptide loaded biosensor. Association and dissociation signals were monitored in real-time. Signals were fit to a 1:1 binding model in order to derive binding constants, kon and koff, as well as KD.

MAGE-A3 TCR (TCR-1) [2] = assay: Equilibrium binding of TCR to peptides (ELISA)
Method: Peptide binding was also examined in an ELISA format. Biotinylated peptides were captured on neutravidin coated plates. TCR was then prepared in a half-log dilution series starting from 10 uM and titrated onto the peptide captured plates. […] The concentration of TCR required to observe half maximal binding signal (EC50) was then calculated using Graphpad Prism.

[3] = system: TCR-1 binding to MAGE-A3 pMHC; assay: Inhibition of kinetic binding of TCR to its cognate pMHC (BLI); details: Table 3
Method: First, biotinylated pMHC was captured on streptavidin biosensors. Sensors were quenched using excess biocytin and then baselined in buffer. Inhibitory peptide was titrated in a two fold dilution series starting from 100 uM and pre-incubated with a constant concentration of 50 nM TCR. Peptide and TCR mixtures were then associated onto the pMHC loaded biosensor. Zero concentration of inhibitory peptide or zero concentration of TCR were used as controls. Association and dissociation signals were monitored in real-time. The maximal association signal was normalized from 100% (0 uM inhibitory peptide control) to 0% (0 nM TCR control) and plotted versus log-scale inhibitory peptide concentration.

Row | Molecule | Octet BLI Binds TCR (MAGE-A3 TCR (TCR-1) [1]) | EC50 (MAGE-A3 TCR (TCR-1) [2]; Table 3) | Octet BLI Competes at 100 uM [3] | further results
1 | CC(C)[C@H](NC(=O)CNC(=O)CN)C(=O)N[C@@H](CO)C(=O)N[C@H]1CSSC[C@@H](C(=O)N[C@@H](Cc2c[nH]c3ccccc23)C(=O)N[C@H](C(=O)NCC(=O)NCC(=O)NCC(=O)NCC(=O)N[C@@H](CO)C(=O)NCCOCCOCCOCCOCCC(=O)N[C@@H](CCCCNC(=O)CCCC[C@@H]2SC[C@@H]3NC(=O)N[C@@H]32)C(N)=O)[C@@H](C)O)NC(=O)[C@H](Cc2ccccc2)NC(=O)[C@H](C)NC(=O)[C@H](CCC(=O)O)NC(=O)[C@H](CC(=O)O)NC(=O)[C@H](C)NC(=O)[C@H](C(C)C)NC(=O)[C@H](CC(=O)O)NC(=O)[C@H](CCCCN)NC1=O [Peptide-27] | No | > 10 µM |  | 
2 | CC(C)[C@H](NC(=O)CNC(=O)CN)C(=O)N[C@@H](CO)C(=O)N[C@H]1CSSC[C@@H](C(=O)N[C@@H](Cc2c[nH]c3ccccc23)C(=O)N[C@H](C(=O)NCC(=O)NCC(=O)NCC(=O)NCC(=O)N[C@@H](CO)C(=O)NCCOCCOCCOCCOCCC(=O)N[C@@H](CCCCNC(=O)CCCC[C@@H]2SC[C@@H]3NC(=O)N[C@@H]32)C(N)=O)[C@@H](C)O)NC(=O)[C@H](Cc2ccccc2)NC(=O)[C@H](C)NC(=O)[C@H](CCC(=O)O)NC(=O)[C@H](C)NC(=O)[C@H](Cc2ccc(O)cc2)NC(=O)[C@H](C(C)C)NC(=O)[C@H](CC(=O)O)NC(=O)[C@H](CCCCN)NC1=O [Peptide-28] | Yes |  | Yes | 
3 | CC(C)[C@H](NC(=O)CNC(=O)CN)C(=O)N[C@@H](CO)C(=O)N[C@H]1CSSC[C@@H](C(=O)N[C@@H](Cc2c[nH]c3ccccc23)C(=O)N[C@H](C(=O)NCC(=O)NCC(=O)NCC(=O)NCC(=O)N[C@@H](CO)C(=O)NCCOCCOCCOCCOCCC(=O)N[C@@H](CCCCNC(=O)CCCC[C@@H]2SC[C@@H]3NC(=O)N[C@@H]32)C(N)=O)[C@@H](C)O)NC(=O)[C@H](Cc2ccccc2)NC(=O)[C@H](C)NC(=O)[C@H](CCC(=O)O)NC(=O)[C@H](CC(=O)O)NC(=O)[C@H](Cc2ccc(O)cc2)NC(=O)[C@H](C(C)C)NC(=O)[C@H](CC(=O)O)NC(=O)[C@H](C)NC1=O [Peptide-24] | Yes |  | Yes | 
4 | ESDPIVAQY [Peptide-35, Titin peptide, linear control absent MHC presentation, reference compound] | No | > 10 µM |  | 
5 | CC(C)[C@H](NC(=O)CNC(=O)CN)C(=O)N[C@@H](CO)C(=O)N[C@H]1CSSC[C@@H](C(=O)N[C@@H](C)C(=O)N[C@H](C(=O)NCC(=O)NCC(=O)NCC(=O)NCC(=O)N[C@@H](CO)C(=O)NCCOCCOCCOCCOCCC(=O)N[C@@H](CCCCNC(=O)CCCC[C@@H]2SC[C@@H]3NC(=O)N[C@@H]32)C(N)=O)[C@@H](C)O)NC(=O)[C@H](Cc2ccccc2)NC(=O)[C@H](C)NC(=O)[C@H](CCC(=O)O)NC(=O)[C@H](CC(=O)O)NC(=O)[C@H](Cc2ccc(O)cc2)NC(=O)[C@H](C(C)C)NC(=O)[C@H](CC(=O)O)NC(=O)[C@H](CCCCN)NC1=O [Peptide-32] | Yes |  | Yes | 
6 | CC(C)[C@H](NC(=O)CNC(=O)CN)C(=O)N[C@@H](CO)C(=O)N[C@@H](CS)C(=O)N[C@@H](CCCCN)C(=O)N[C@@H](CC(=O)O)C(=O)N[C@H](C(=O)N[C@@H](Cc1ccc(O)cc1)C(=O)N[C@@H](CC(=O)O)C(=O)N[C@@H](CCC(=O)O)C(=O)N[C@@H](C)C(=O)N[C@@H](Cc1ccccc1)C(=O)N[C@@H](C)C(=O)N[C@@H](Cc1c[nH]c2ccccc12)C(=O)N[C@H](C(=O)NCC(=O)NCC(=O)NCC(=O)NCC(=O)N[C@@H](CO)C(=O)NCCOCCOCCOCCOCCC(=O)N[C@@H](CCCCNC(=O)CCCC[C@@H]1SC[C@@H]2NC(=O)N[C@@H]21)C(N)=O)[C@@H](C)O)C(C)C [Peptide-31] | Weak | > 10 µM |  | 
7 | CC(C)[C@H](NC(=O)CNC(=O)CN)C(=O)N[C@@H](CO)C(=O)N[C@H]1CSSC[C@@H](C(=O)N[C@@H](Cc2c[nH]c3ccccc23)C(=O)N[C@H](C(=O)NCC(=O)NCC(=O)NCC(=O)NCC(=O)N[C@@H](CO)C(=O)NCCOCCOCCOCCOCCC(=O)N[C@@H](CCCCNC(=O)CCCC[C@@H]2SC[C@@H]3NC(=O)N[C@@H]32)C(N)=O)[C@@H](C)O)NC(=O)[C@H](Cc2ccccc2)NC(=O)[C@H](C)NC(=O)[C@H](CCC(=O)O)NC(=O)[C@H](CC(=O)O)NC(=O)[C@H](Cc2ccc(O)cc2)NC(=O)[C@H](C)NC(=O)[C@H](CC(=O)O)NC(=O)[C@H](CCCCN)NC1=O [Peptide-26] | No |  |  | 
8 | CC(C)[C@H](NC(=O)CNC(=O)CN)C(=O)N[C@@H](CO)C(=O)N[C@H]1CSSC[C@@H](C(=O)N[C@@H](Cc2c[nH]c3ccccc23)C(=O)N[C@@H](C)C(=O)NCC(=O)NCC(=O)NCC(=O)NCC(=O)N[C@@H](CO)C(=O)NCCOCCOCCOCCOCCC(=O)N[C@@H](CCCCNC(=O)CCCC[C@@H]2SC[C@@H]3NC(=O)N[C@@H]32)C(N)=O)NC(=O)[C@H](Cc2ccccc2)NC(=O)[C@H](C)NC(=O)[C@H](CCC(=O)O)NC(=O)[C@H](CC(=O)O)NC(=O)[C@H](Cc2ccc(O)cc2)NC(=O)[C@H](C(C)C)NC(=O)[C@H](CC(=O)O)NC(=O)[C@H](CCCCN)NC1=O [Peptide-33] | Yes |  | Yes | 
9 | CC(C)[C@H](NC(=O)CNC(=O)CN)C(=O)N[C@@H](C)C(=O)N[C@H]1CSSC[C@@H](C(=O)N[C@@H](Cc2c[nH]c3ccccc23)C(=O)N[C@H](C(=O)NCC(=O)NCC(=O)NCC(=O)NCC(=O)N[C@@H](CO)C(=O)NCCOCCOCCOCCOCCC(=O)N[C@@H](CCCCNC(=O)CCCC[C@@H]2SC[C@@H]3NC(=O)N[C@@H]32)C(N)=O)[C@@H](C)O)NC(=O)[C@H](Cc2ccccc2)NC(=O)[C@H](C)NC(=O)[C@H](CCC(=O)O)NC(=O)[C@H](CC(=O)O)NC(=O)[C@H](Cc2ccc(O)cc2)NC(=O)[C@H](C(C)C)NC(=O)[C@H](CC(=O)O)NC(=O)[C@H](CCCCN)NC1=O [Peptide-22] | No |  |  | 
10 | CC(C)[C@H](NC(=O)CNC(=O)CN)C(=O)N[C@@H](CO)C(=O)N[C@H]1CSSC[C@@H](C(=O)N[C@@H](Cc2c[nH]c3ccccc23)C(=O)N[C@H](C(=O)NCC(=O)NCC(=O)NCC(=O)NCC(=O)N[C@@H](CO)C(=O)NCCOCCOCCOCCOCCC(=O)N[C@@H](CCCCNC(=O)CCCC[C@@H]2SC[C@@H]3NC(=O)N[C@@H]32)C(N)=O)[C@@H](C)O)NC(=O)[C@H](Cc2ccccc2)NC(=O)[C@H](C)NC(=O)[C@H](C)NC(=O)[C@H](CC(=O)O)NC(=O)[C@H](Cc2ccc(O)cc2)NC(=O)[C@H](C(C)C)NC(=O)[C@H](CC(=O)O)NC(=O)[C@H](CCCCN)NC1=O [Peptide-29] | No |  |  | 
11 | CC(C)[C@H](NC(=O)CNC(=O)CN)C(=O)N[C@@H](CO)C(=O)N[C@H]1CSSC[C@@H](C(=O)N[C@@H](Cc2c[nH]c3ccccc23)C(=O)N[C@H](C(=O)NCC(=O)NCC(=O)NCC(=O)NCC(=O)N[C@@H](CO)C(=O)NCCOCCOCCOCCOCCC(=O)N[C@@H](CCCCNC(=O)CCCC[C@@H]2SC[C@@H]3NC(=O)N[C@@H]32)C(N)=O)[C@@H](C)O)NC(=O)[C@H](Cc2ccccc2)NC(=O)[C@H](C)NC(=O)[C@H](CCC(=O)O)NC(=O)[C@H](CC(=O)O)NC(=O)[C@H](Cc2ccc(O)cc2)NC(=O)[C@H](C(C)C)NC(=O)[C@H](C)NC(=O)[C@H](CCCCN)NC1=O [Peptide-25] | Weak |  |  | 
12 | CC(C)[C@@H]1NC(=O)[C@H](CC(=O)O)NC(=O)[C@H](CCCCN)NC(=O)[C@@H](NC(=O)[C@H](CO)NC(=O)[C@H](C)NC(=O)CNC(=O)CN)CSSC[C@@H](C(=O)N[C@@H](Cc2c[nH]c3ccccc23)C(=O)N[C@H](C(=O)NCC(=O)NCC(=O)NCC(=O)NCC(=O)N[C@@H](CO)C(=O)NCCOCCOCCOCCOCCC(=O)N[C@@H](CCCCNC(=O)CCCC[C@@H]2SC[C@@H]3NC(=O)N[C@@H]32)C(N)=O)[C@@H](C)O)NC(=O)[C@H](Cc2ccccc2)NC(=O)[C@H](C)NC(=O)[C@H](CCC(=O)O)NC(=O)[C@H](CC(=O)O)NC(=O)[C@H](Cc2ccc(O)cc2)NC1=O [Peptide-21] | Yes |  | Yes | 
13 | EVDPIGHLY [Peptide-34, MAGE-A3 antigen peptide, linear control absent MHC presentation, reference compound] | No | > 10 µM |  | binding to TCR-1, Ala scan and control peptides (MAGE-A3 TCR (TCR-1) [2]; relative to Peptide-5): lack of binding
14 | GGNQCWEVYDQEFCSL [Peptide-9] |  |  |  | EC50 (MAGE-A3 TCR (TCR-1) [2]; Table 2, TCR-1 titrated on captured peptide): 0.05 µM
15 | CC(C)[C@H](NC(=O)CNC(=O)CN)C(=O)N[C@@H](CO)C(=O)N[C@H]1CSSC[C@@H](C(=O)N[C@@H](Cc2c[nH]c3ccccc23)C(=O)N[C@H](C(=O)NCC(=O)NCC(=O)NCC(=O)NCC(=O)N[C@@H](CO)C(=O)NCCOCCOCCOCCOCCC(=O)N[C@@H](CCCCNC(=O)CCCC[C@@H]2SC[C@@H]3NC(=O)N[C@@H]32)C(N)=O)[C@@H](C)O)NC(=O)[C@H](C)NC(=O)[C@H](C)NC(=O)[C@H](CCC(=O)O)NC(=O)[C@H](CC(=O)O)NC(=O)[C@H](Cc2ccc(O)cc2)NC(=O)[C@H](C(C)C)NC(=O)[C@H](CC(=O)O)NC(=O)[C@H](CCCCN)NC1=O [Peptide-30] | No | > 10 µM |  | 
